Source: patent US8853281B2, “Cysteine protease inhibitors” (Medivir UK Ltd, priority 2008, dated 2014)

Key:
Assay type in all cases: biochemical
[1] = target: T1, human cathepsin S (Homo sapiens, UniProt P25774); assay: Cathepsin S Ki determination (boc-Val-Leu-Lys-AMC fluorescent substrate); details: baculovirus-expressed human cathepsin S 2 nM, pH 6.5, competitive inhibition fit; read-out: Ki Cat. S
T1 construct: made in house; host or cells: baculovirus expression system
Protocol: Cathepsin S Ki Determination
The assay uses baculovirus-expressed human cathepsin S and the boc-Val-Leu-Lys-AMC fluorescent substrate available from Bachem in a 384 well plate format, in which 7 test compounds can be tested in parallel with a positive control comprising a known cathepsin S inhibitor comparator.
280 μl/well of 12.5% DMSO are added to rows B-H of two columns of a 96 deep well polypropylene plate. 70 μl/well of substrate is added to row A. 2×250 μl/well of assay buffer (100 mM Na phosphate, 100 mM NaCl, pH 6.5) is added to row A, mixed, and double diluted down the plate to row H.
100 μl/well of assay buffer is added to columns 2-5 and 7-12 of 4 rows of a 96 well V bottom polypropylene plate. 200 μl/well of assay buffer is added to columns 1 and 6.
The first test compound prepared in DMSO is added to column 1 of the top row, typically at a volume to provide between 10 and 30 times the initially determined rough Ki. The rough Ki is calculated from a preliminary run in which 10 μl/well of 1 mM boc-VLK-AMC ( 1/10 dilution of 10 mM stock in DMSO diluted into assay buffer) is dispensed to rows B to H and 20 μl/well to row A of a 96 well Microfluor™ plate. 2 μl of each 10 mM test compound is added to a separate well on row A, columns 1-10. Add 90 μl assay buffer containing 1 mM DTT and 2 nM cathepsin S to each well of rows B-H and 180 μl to row A. Mix row A using a multichannel pipette and double dilute to row G. Mix row H and read in the fluorescent spectrophotometer. The readings are Prism data fitted to the competitive inhibition equation, setting S=100 μM and KM=100 μM to obtain an estimate of the Ki, up to a maximum of 100 μM.
The second test compound is added to column 6 of the top row, the third to column 1 of the second row etc. Add 1 μl of comparator to column 6 of the bottom row. Mix column 1 and double dilute to column 5. Mix column 6 and double dilute to column 10.
Using an 8-channel multistepping pipette set to 5×10 μl, distribute 10 μl/well of substrate to the 384 well assay plate. Distribute the first column of the substrate dilution plate to all columns of the assay plate starting at row A. The tip spacing of the multichannel pipette will correctly skip alternate rows. Distribute the second column to all columns starting at row B.
Using a 12-channel multistepping pipette set to 4×10 μl, distribute 10 μl/well of inhibitor to the 384 well assay plate. Distribute the first row of the inhibitor dilution plate to alternate rows of the assay plate starting at A1. The tip spacing of the multichannel pipette will correctly skip alternate columns. Similarly, distribute the second, third and fourth rows to alternate rows and columns starting at A2, B1 and B2 respectively.
Mix 20 ml assay buffer and 20 μl 1M DTT. Add sufficient cathepsin S to give 2 nM final concentration.
Using the a distributor such as a Multidrop 384, add 30 μl/well to all wells of the assay plate and read in fluorescent spectrophotomoter such as an Ascent.
Fluorescent readings, (excitation and emission wavelengths 390 nm and 460 nm respectively, set using bandpass filters) reflecting the extent of enzyme cleavage of the fluorescent substrate, […] the inhibitor, are linear rate fitted for each well.
Fitted rates for all wells for each inhibitor are fitted to the competitive inhibition equation using SigmaPlot 2000 to determine V, Km and Ki values.
(§1) Potential inhibitors are screened using the above assay with variable concentrations of test compound. Reactions were initiated by addition of enzyme to buffered solutions of substrate and inhibitor. Ki values were calculated according to equation 1.
(§2) [formula] where v0 is the velocity of the reaction, V is the maximal velocity, S is the concentration of substrate with Michaelis constant of KM, and I is the concentration of inhibitor.

[2] = target: T2, cathepsin K (Homo sapiens, UniProt P43235); assay: Determination of cathepsin K proteolytic catalytic activity (H-D-Ala-Leu-Lys-AMC fluorogenic substrate); details: human recombinant enzyme 5 nM, ambient temperature; read-out: Ki Cat. K
T2 construct: made in house; host or cells: not fixed: E coli, Pichia or Baculovirus systems named as options
T2 sequence (P43235 115-329): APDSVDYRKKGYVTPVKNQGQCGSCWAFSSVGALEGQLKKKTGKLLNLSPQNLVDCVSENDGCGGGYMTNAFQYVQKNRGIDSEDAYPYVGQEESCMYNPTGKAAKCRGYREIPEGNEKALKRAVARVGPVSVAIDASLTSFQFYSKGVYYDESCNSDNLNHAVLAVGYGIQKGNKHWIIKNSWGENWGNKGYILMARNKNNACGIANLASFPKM
Protocol: Determination of Cathepsin K Proteolytic Catalytic Activity
Convenient assays for cathepsin K are carried out using human recombinant enzyme, such as that described in PDB.
DE Homo sapiens cathepsin K (pycnodysostosis), mRNA (cDNA clone MGC:23107
The recombinant cathepsin K can be expressed in a variety of commercially available expression systems including E coli, Pichia and Baculovirus systems. The purified enzyme is activated by removal of the prosequence by conventional methods.
Standard assay conditions for the determination of kinetic constants used a fluorogenic peptide substrate, typically H-D-Ala-Leu-Lys-AMC, and were determined in either 100 mM Mes/Tris, pH 7.0 containing 1 mM EDTA and 10 mM 2-mercaptoethanol or 100 mMNa phosphate, imM EDTA, 0.1% PEG4000 pH 6.5 or 100 mM Na acetate, pH 5.5 containing 5 mM EDTA and 20 mM cysteine, in each case optionally with […] as stabiliser. The enzyme concentration used was 5 nM. The stock substrate solution was prepared at 10 mM in DMSO. Screens were carried out at a fixed substrate concentration of 60 μM and detailed kinetic studies with doubling dilutions of substrate from 250 μM. The total DMSO concentration in the assay was kept below 3%. All assays were conducted at ambient temperature. Product fluorescence (excitation at 390 nm, emission at 460 nm) was monitored with a Labsystems Fluoroskan Ascent fluorescent plate reader. Product progress curves were generated over 15 minutes following generation of AMC product.
as §1, §2

[3] = target: human cathepsin L (Homo sapiens, UniProt P07711); assay: Cathepsin L Ki (H-D-Val-Leu-Lys-AMC substrate); details: human cathepsin L 5 nM, sodium acetate pH 5.5; read-out: Ki Cat. L
human cathepsin L, sequence (P07711 114-333): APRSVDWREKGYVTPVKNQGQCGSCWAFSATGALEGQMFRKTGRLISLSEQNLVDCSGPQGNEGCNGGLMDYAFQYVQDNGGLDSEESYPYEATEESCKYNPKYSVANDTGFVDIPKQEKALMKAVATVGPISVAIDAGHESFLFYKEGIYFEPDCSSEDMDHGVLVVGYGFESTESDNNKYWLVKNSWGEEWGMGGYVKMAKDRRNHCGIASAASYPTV
Protocol: The procedure above with the following amendments is used for the determination of Ki for cathepsin L.
The enzyme is commercially available human cathepsin L (for example Calbiochem). The substrate is H-D-Val-Leu-Lys-AMC available from Bahcem. The assay buffer is 100 mM sodium acetate 1 mM EDTA, pH5.5) The DMSO stock (10 mM in 100% DMSO) is diluted to 10% in assay buffer. Enzyme is prepared at 5 nM concentration in assay buffer plus 1 mM dithiothreitol just before use. 2 ul of 10 mM inhibitor made up in 100% DMSO is dispensed into row A. 10 μl of 50 μM substrate (= 1/200 dilution of 10 mM stock in DMSO, diluted in assay buffer).
as §1, §2

T1 sequence (P25774 115-331): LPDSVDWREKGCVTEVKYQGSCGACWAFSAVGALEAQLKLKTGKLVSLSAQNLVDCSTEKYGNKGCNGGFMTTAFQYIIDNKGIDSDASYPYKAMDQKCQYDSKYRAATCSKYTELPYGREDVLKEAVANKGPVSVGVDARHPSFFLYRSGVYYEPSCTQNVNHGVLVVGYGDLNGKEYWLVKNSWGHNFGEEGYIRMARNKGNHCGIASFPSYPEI

Row | Ki [1] [nM] | Ki [2] [nM] | Ki [3] [nM] | SMILES
1 | 0.35 | 180 | 1500 | Cn1ccc(NC(=O)C(=O)[C@]2(NC(=O)[C@H](CC3(C)CCCC3)NC(=O)N3CCCC3)C[C@H](F)C2)n1 [Example 123, Pyrrolidine-1-carboxylic Acid [1-[3-fluoro-1-(1-methyl-1H-pyrazol-3-ylaminooxalyl)-cyclobutylcarbamoyl]-2-(1-methyl-cyclopentyl)-ethyl]-amide]
2 | 0.79 | 2300 | 12000 | CC1(C[C@H](NC(=O)c2ccoc2)C(=O)NC2(C(=O)C(=O)NC3CC3)CC(F)(F)C2)CCCC1 [Example 27]
3 | 0.59 | 310 | 14000 | CNC(=O)C(=O)C1(NC(=O)[C@H](CC(C)(C)C)NC(=O)c2ccc(NS(=O)(=O)c3ccccc3)cc2)CCC1 [Example 75]
4 | 2.3 | 3500 | 7100 | CC1(C[C@H](NC(=O)N2CCOCC2)C(=O)NC2(C(=O)C(=O)NC3CC3)CCC2)CCCC1 [Example 2]
5 | 0.19 | 460 | 600 | Cn1ccc(NC(=O)C(=O)C2(NC(=O)[C@H](CC3(C)CCCC3)NC(=O)N3CCOCC3)CCC2)n1 [Example 6]
6 | 3.9 | 1000 | 3800 | COC1CC(NC(=O)C(CC2(C)CCC2)NC(=O)N2CCOCC2)(C(=O)C(=O)NC2CC2)C1 (single isomer, unassigned) [Example 122]
7 | 2 | 3500 | 6300 | CC1(C[C@H](NC(=O)N2CCOCC2)C(=O)NC2(C(=O)C(=O)NCCCCl)CCC2)CCCC1 [Example 35]
8 | 1 | 2400 | 3100 | O=C(NC1CC1)C(=O)C1(NC(=O)[C@H](CC2(F)CCCC2)NC(=O)c2ccc(O)c(F)c2)CC(F)(F)C1 [Example 50, N-[1-(1-Cyclopropylaminooxalyl-3,3-difluoro-cyclobutylcarbamoyl)-2-(1-fluoro-cyclopentyl)-ethyl]-3-fluoro-4-hydroxy-benzamide]
9 | 0.65 | 3600 | 200 | Cn1ccc(NC(=O)C(=O)C2(NC(=O)[C@H](CC3CCCCC3)NC(=O)N3CCOCC3)CC(F)(F)C2)n1 [Example 111]
10 | 0.24 | 360 | 1700 | Cn1ccc(NC(=O)C(=O)C2(NC(=O)[C@H](CC3(C)CCCC3)NC(=O)C3CC3)CC(F)C2)n1 (stereo partly drawn) [Example 60]
